What is called CC50 is the concentration at which the toxic effect on the cells reaches its halfway point.

Values after ≈ are worked out from the molar mass of the structure shown. Peptide text beside a SMILES is read from it.

Consider one compound from article PMC8443647, “Hybrid derivative of cathelicidin and human beta defensin-2 against Gram-positive bacteria: A novel approach for the treatment of bacterial keratitis” (Scientific Reports, 2021).

In series [1] the test system is P. aeruginosa PA-OS. Description: microbe, parasite or virus in culture. Format: cell-based. The note with it: PA-OS, 24 h. Put shortly: (§1)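 MIC was determined by CLSI broth microdilution in cation-adjusted Mueller-Hinton broth. Peptides or antibiotics were tested in 1:2 serial dilutions against a final inoculum of 5 × 10^5 CFU/ml, prepared by direct colony suspension from overnight TSA cultures grown at 37 °C.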

A short description of series [2]: in vitro. The format is cell-based, human. As to conditions: human. On the procedure: Cell viability and cytotoxicity of antibiotics and peptides were determined against human corneal epithelial cells (HCE-2, CRL-11135, ATCC, Manassas, Virginia, USA) using cell-counting-kit-8 (CCK-8) assay (Sigma Aldrich, Merck Life Science UK Limited, Dorset, UK) and lactate dehydrogenase (LDH) assay (ThermoFisher Scientific, UK), respectively, as per manufacturer’s guidelines. HCE-2 cells were cultured and seeded into a 96-well plate at a density of 7.5 × 10^3 cells/well and allowed to attach overnight and grew to 80–90% confluency in keratinocyte serum free medium (KSFM) supplemented with human recombinant epidermal growth factor, bovine pituitary extract, hydrocortisone, and insulin. Once the confluency reached 80–90%, the cells were incubated with treatment for 3 h before OD450 measurement was taken using BMG Clariostar microplate reader (BMG Labtech Ltd., Aylesbury, UK). Appropriate controls were used, including 0.1% Triton X-100 as positive control and KSFM as negative control. Cell viability was calculated using the following formula: [([…]) × 100; I = intensity] and cytotoxicity was calculated using the following formula: [((Itreatment – INC)/(IPC – INC)) × 100].

Series [3] relates to S. epidermidis ATCC 12228. Format: cell-based, Staphylococcus epidermidis. As to conditions: ATCC 12228, 24 h. The source says: (§2) A range of Gram-positive and Gram-negative laboratory- and clinical-strain bacteria were used for the experiments. These included laboratory-strain methicillin-sensitive S. aureus (MSSA; including SH1000 and ATCC SA29213), laboratory-strain MRSA (ATCC MRSA43300), clinical-strain MRSA (MRSA-OS; an IK isolate), laboratory-strain methicillin-sensitive Staphylococcus epidermidis (MSSE; ATCC SE12228), laboratory invasive-strain P. aeruginosa (PAO1-L), and clinical cytotoxic-strain P. aeruginosa (PA-OS; an IK isolate).
In vitro antimicrobial efficacy of the antibiotics and designed HDPs was determined using an established MIC assay with broth microdilution method approved by the Clinical and Laboratory Standards Institute (CLSI)[64]. Briefly, the microorganisms were cultured on Tryptone Soya Agar (TSA) and incubated overnight for 18–21 h at 37 °C. Bacterial inoculums were subsequently prepared using the direct colony suspension method. Three to five bacterial colonies were obtained from the agar plate and inoculated into an Eppendorf tube containing 1 ml of cation-adjusted Muller-Hinton broth (caMHB), consisting of 20–25 mg/L calcium ions (Ca^2+) and 10–12.5 mg/L magnesium ions (Mg^2+). […]

Series [4] is described as follows: Hemolytic assay. Format: cell-based. The note with it: human, Hmax (%): percentage of hemolysis at 200 µg/ml. The method, then: Ethical approval was obtained from the Local Research Ethics Committee of University of Nottingham prior to the experiment (Ref: 176-1812). The experiment was conducted in accordance with the relevant guidelines and regulations. Hemolytic assay was performed according to the previously established protocol. Briefly, 5 ml of fresh human blood was collected from healthy participants with written informed consent, in an EDTA tube and centrifuged for 10 min at 1300g at 10 °C for separation of plasma. The remaining erythrocytes were rinsed and centrifuged further three times in Ca^2+/Mg^2+ free Dulbecco’s phosphate-buffered saline (DPBS). Subsequently, erythrocytes were diluted to 8% v/v in DPBS and incubated with 100 μl of treatment, positive control (1% Triton X-100) and negative control (DPBS), all in 1:1 ratio, for 1 h (final erythrocytes concentration = 4% v/v). After 1 h of incubation, the plate was centrifuged at 500×g for 5 min and 100 μl of supernatant of each well was transferred into a 96-well plate for measurement at OD540. Hemolysis (%) was calculated as [(Itreatment – INC)/(IPC – INC)] × 100.

Series [5] relates to corneal epithelial wound. The note with it: mouse, in vivo. On the procedure:
The in vivo studies were conducted in two stages, namely the corneal wound healing study (for safety) and BK study (for efficacy), based on previously established protocols[54],[65]. […] The mice were maintained and treated in compliance with the Guide for the Care and Use of Laboratory Animals (National Research Council) and the ARVO statement for the Use of Animals in Ophthalmic and Vision Research. […]
In vivo safety of CaD23 (in 0.03%, 0.05% or 0.1%), and PBS (negative control) was first determined in a mouse corneal epithelial wound healing model. In the absence of in vivo pilot data of our designed HDPs, the sample size was calculated based on a previous study. […]
All mice were randomly allocated to each of the four treatment groups (n = 4 mice/group). […] Corneal epithelial defect was assessed using a cobalt-blue filter-equipped slit-lamp biomicroscopy and photography with staining with topical sodium fluorescein 1% at baseline (immediately post-debridement) and daily up to 3 days post-treatment. Fluorescein-stained images of the corneal wound defect were analyzed using ImageJ software (https://imagej.nih.gov/ij/)[68]. The main outcome measure was the wound size at the end of day 1, 2 and 3 [expressed as % of the original wound size in mean and standard deviation (SD)]. […]

Series [6] deals with MRSA-OS. Description: microbe, parasite or virus in culture. The format is cell-based, Staphylococcus aureus. The note with it: -OS, 24 h. A digest of the protocol:
as §1

The test system of series [7] is S. aureus ATCC 29213. The format is cell-based, Staphylococcus aureus. As to conditions: ATCC 29213, 24 h.
Description: as §2
(§3) In vitro antimicrobial efficacy of the antibiotics and designed HDPs was determined using an established MIC assay with broth microdilution method approved by the Clinical and Laboratory Standards Institute (CLSI)[64]. Briefly, the microorganisms were cultured on Tryptone Soya Agar (TSA) and incubated overnight for 18–21 h at 37 °C. Bacterial inoculums were subsequently prepared using the direct colony suspension method. Three to five bacterial colonies were obtained from the agar plate and inoculated into an Eppendorf tube containing 1 ml of cation-adjusted Muller-Hinton broth (caMHB), consisting of 20–25 mg/L calcium ions (Ca^2+) and 10–12.5 mg/L magnesium ions (Mg^2+). The bacterial suspension was adjusted to achieve a turbidity equivalent to 0.1 OD600 or 0.5 MacFarland, containing ~ 1.5 × 10^8 colony-forming unit (CFU)/ml, which was then further diluted in 1:150 in caMHB to reach a final bacterial concentration of ~ 1 × 10^6 colony forming units (CFU)/ml. Each treatment (peptide or antibiotic) was prepared in 1:2 serial dilution in 96-well polypropylene microplates (with a final treatment volume of 50 μl per well), followed by the addition of 50 μl of 1 × 10^6 CFU/ml bacteria into each well (with a final bacterial concentration of 5 × 10^5 CFU/ml).

Series [8] relates to MRSA. The format is cell-based, Staphylococcus aureus.
Description: as §2, §3

For series [9], the system named is MRSA ATCC 43300. The format is cell-based, Staphylococcus aureus. The note with it: ATCC 43300, 24 h.
Description: as §2, §3

The test system of series [10] is MSSA. Format: cell-based, Staphylococcus aureus.
Description: as §2, §3

Take `CC[C@H](C)[C@H](NC(=O)[C@H](CCCNC(=N)N)NC(=O)[C@H](CCC(N)=O)NC(=O)[C@@H](NC(=O)[C@@H](NC(=O)[C@H](CCCNC(=N)N)NC(=O)[C@@H](N)CCCCN)[C@@H](C)CC)C(C)C)C(=O)N[C@@H](CCCCN)C(=O)N[C@@H](CC(=O)O)C(=O)N[C@@H](Cc1c[nH]c2ccccc12)C(=O)N[C@@H](CC(C)C)C(=O)N[C@@H](CCCNC(=N)N)C(=O)N[C@@H](CCCCN)C(=O)N[C@@H](CC(C)C)C(=O)N[C@@H](CS)C(=O)N[C@@H](CCCCN)C(=O)N[C@@H](CCCCN)C(=O)N[C@@H](Cc1c[nH]c2ccccc12)C(=O)O` [CaD23, KRIVQRIKDW LRKLCKKW] (H-KRIVQRIKDWLRKLCKKW-OH; N-terminus and C-terminus assumed): the MIC turned out to be 50 µg/mL (≈ 20.9 µM) in [1]; 5.2 µM (≈ 12.5 µg/mL) in series [3]; 100 µg/mL (≈ 41.7 µM) in [6]; 50 µg/mL (≈ 20.9 µM) in series [7]; 25 µg/mL (≈ 10.4 µM) in series [8]; 100 µg/mL (≈ 41.7 µM) in series [9]. In [10], this compound had an MIC of 12.5 to 25.0 µg/mL. Also, in series [2], the CC50 at 3 h was > 200 µg/mL. In addition, the hemolysis at 1 h, 200 µg/ml in series [4] was < 10%. In [5], the “Mean wound size (% of original wound size)” value was 28.5 ± 19.9%.
